Assay results from patent US20260138990A1, “TRICYCLIC FUSED IMIDAZOLE COMPOUNDS AS CD38 MODULATORS AND USES THEREOF” (AEOVIAN PHARMACEUTICALS, INC., priority 2023, published 2026).

Key:
human CD38 = target: T1, human CD38 (Homo sapiens, UniProt P28907); assay: NAD+ cyclase activity assay with human recombinant CD38 protein (ε-NAD fluorescence); assay type: biochemical; details: 1.9 nM human CD38, substrate ε-NAD, 30 min preincubation, fluorescence 300/410 nm
T1 construct: purchased Bio-Techne GmbH AVI2404
T1 sequence (P28907 1-300): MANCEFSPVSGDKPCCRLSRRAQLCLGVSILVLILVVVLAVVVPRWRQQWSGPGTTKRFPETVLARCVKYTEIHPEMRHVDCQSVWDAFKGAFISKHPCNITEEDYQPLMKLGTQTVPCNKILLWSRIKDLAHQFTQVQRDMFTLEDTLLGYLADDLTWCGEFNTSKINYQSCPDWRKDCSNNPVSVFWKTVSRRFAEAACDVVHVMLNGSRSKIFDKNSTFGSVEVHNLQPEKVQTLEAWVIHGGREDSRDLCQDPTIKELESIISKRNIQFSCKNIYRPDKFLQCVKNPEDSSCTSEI
Experimental: (§1) Example 4: NAD^+ Cydase Activity Assay with Human or Mouse Recombinant CD38 Protein
(§2) The following assay was used to determine the ability of compounds of the invention to inhibit the hydrolysis of NAD^+ by the human or mouse enzyme, CD38.
(§3) Reaction buffer: 40 mM HEPES/NaOH pH 7.5, 250 mM sucrose, 0.01% Tween
(§4) Final concentrations: 0.6 nM mouse CD38 (4947-AC, Bio-Techne GmbH) 1.9 nM human CD38 (AVI2404, Bio-Techne GmbH)
(§5) Substrate: […] Nicotinamide 1,N6-ethenoadenine dinucleotide (&-NAD)
(§6) Read-out: Fluorescence intensity (extinction 300 nm/emission 410 nm)
(§7) Required reaction buffer, required CD38 concentration in reaction buffer and required e-NAD concentration in reaction buffer were prepared. Thereafter, 8 μL of CD38 in reaction buffer was added to High Control and compound concentration wells in 384 well plate (Corning #4514, 384 well, nonbinding surface, low volume, round bottom) and 8 μL of reaction buffer to Low Control. Compound dilutions were transferred via pintool technology that transfers 42.5 nL compound dilutions (12-point dose-response with factor three dilutions in 100% DMSO) well-to-well. Plate was subsequently shaken for 15 s at 1450 rpm and sealed for incubation for 30 min at room temperature. Thereafter, 2 μL of e-NAD in reaction buffer were added with Integra Voyager. After shaking for 15 s at 1450 rpm, plate was sealed, and assay signal were measured continuously with PHERAstar® fluorescence intensity module (extinction 300 nm/emission 410 nm).
(§8) Dose-response curves were constructed using twelve-pointfactor three dilutions in triplicates per plate. High control (full enzyme activity) was set to assay signal of CD38 and e-NAD in presence of vehicle (DMSO) and Low control (full enzyme inhibition) was set to assay signal of e-NAD and vehicle (DMSO) in absence of CD38. For data analysis, fluorescent signal of traces corresponding to each compound concentration and High and Low control were monitored over time. Each run, High Control (full enzyme activity) was fitted to Linear equation via GraphPad Prism to determine CD38 activity from the slope and determine the time interval of linear phase of reaction to account for minor fluctuations. Thereafter, slopes of all compound concentrations were determined via fitting to same linear equation (GraphPad Prism) over the same time interval as determined for High control. […] Unless otherwise stated, fitting of curves were fixed to 100%-inhibition and unlocked for 0%-inhibition.

mouse CD38 = target: T2, mouse CD38 (Mus musculus, UniProt P56528); assay: NAD+ cyclase activity assay with mouse recombinant CD38 protein (ε-NAD fluorescence); assay type: biochemical; details: 0.6 nM mouse CD38, substrate ε-NAD, 30 min preincubation, fluorescence 300/410 nm
T2 construct: purchased Bio-Techne GmbH 4947-AC
T2 sequence (P56528 1-304): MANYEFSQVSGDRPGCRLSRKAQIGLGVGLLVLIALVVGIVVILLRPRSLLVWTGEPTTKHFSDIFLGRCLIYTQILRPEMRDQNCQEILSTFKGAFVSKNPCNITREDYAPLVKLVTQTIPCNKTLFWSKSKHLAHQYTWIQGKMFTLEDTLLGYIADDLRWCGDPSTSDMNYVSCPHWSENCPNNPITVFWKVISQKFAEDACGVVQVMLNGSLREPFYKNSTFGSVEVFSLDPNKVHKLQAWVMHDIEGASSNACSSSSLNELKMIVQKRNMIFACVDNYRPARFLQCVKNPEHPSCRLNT
Experimental: as §1, §2, §3, §4, §5, §6, §7, §8

| Compound | IC50 (human CD38) [nM] | IC50 (mouse CD38) [nM] |
| --- | --- | --- |
| C[C@@H]1C[C@H](CC(F)(F)F)CC[C@@H]1NC(=O)c1cc(Cl)c2c(c1)-c1cncn1CCO2 (relative stereo) [Compound 184A, 8-Chloro-N-(cis-2-methyl-cis-4-(2,2,2-trifluoroethyl)cyclohexyl)-5,6-dihydrobenzo[f]imidazo[1,5-d][1,4]oxazepine-10-carboxamide] | 100 to 1000 |  |
| C[C@@H]1C[C@H](CC(F)(F)F)CC[C@@H]1NC(=O)c1cc(F)c2c(c1)-c1cncn1CCO2 (relative stereo) [Compound 186A, 8-Fluoro-N-(cis-2-methyl-cis-4-(2,2,2-trifluoroethyl)cyclohexyl)-5,6-dihydrobenzo[f]imidazo[1,5-d][1,4]oxazepine-10-carboxamide] | 30 to 100 |  |
| O=C(N[C@@H]1CCCOC1)c1ccc2c(n1)-n1cncc1CCO2 [Compound 42A, (R)—N-(tetrahydro-2H-pyran-3-yl)-6,7-dihydroimidazo[1,5-d]pyrido[3,2-b][1,4]oxazepine-2-carboxamide] |  | 10 to 100 |
| O=C(N[C@@H]1CCCOC1)c1ccc2c(n1)-n1cnc(c1)CCO2 [Compound 43A, (Z)—N—((R)-Tetrahydro-2H-pyran-3-yl)-5,6-dihydro-1,4-(metheno)pyrido[3,2-b][1,4,6]oxadiazonine-10-carboxamide] | > 1000 |  |
| Cc1c(C(=O)NC2CCC(F)(F)CC2)cc2c(c1C)OCCn1cncc1-2 [Compound 180A, N-(4,4-Difluorocyclohexyl)-8,9-dimethyl-5,6-dihydrobenzo[f]imidazo[1,5-d][1,4]oxazepine-10-carboxamide] | 100 to 1000 |  |
| O=C(NC1CCCC(C(F)(F)F)C1)c1cc(Cl)c2c(c1)-c1cncn1CCO2 (centres unmarked) [Compound 181A, 8-Chloro-N-(3-(trifluoromethyl)cyclohexyl)-5,6-dihydrobenzo[f]imidazo[1,5-d][1,4]oxazepine-10-carboxamide] | < 30 |  |
| CC1CC(CC(F)(F)F)CCC1NC(=O)c1cc(Cl)c2c(c1)-c1cncn1CCO2 (centres unmarked) [Compound 183A, 8-Chloro-N-(2-methyl-4-(2,2,2-trifluoroethyl)cyclohexyl)-5,6-dihydrobenzo[f]imidazo[1,5-d][1,4]oxazepine-10-carboxamide] | < 30 |  |
| CC1CC(CC(F)(F)F)CCC1NC(=O)c1cc(F)c2c(c1)-c1cncn1CCO2 (centres unmarked) [Compound 185A, 8-Fluoro-N-(2-methyl-4-(2,2,2-trifluoroethyl)cyclohexyl)-5,6-dihydrobenzo[f]imidazo[1,5-d][1,4]oxazepine-10-carboxamide] | < 30 |  |
| O=C(N[C@H]1CC[C@H](OCC(F)(F)F)CC1)c1cc2c(c(F)c1F)OCCn1cncc1-2 [Compound 187A, 8,9-Difluoro-N-((1r,4r)-4-(2,2,2-trifluoroethoxy)cyclohexyl)-5,6-dihydrobenzo[f]imidazo[1,5-d][1,4]oxazepine-10-carboxamide] | < 30 |  |
| O=C(N[C@H]1CC[C@@H](OCC(F)(F)F)CC1)c1cc2c(c(F)c1F)OCCn1cncc1-2 [Compound 188A, 8,9-Difluoro-N-((1s,4s)-4-(2,2,2-trifluoroethoxy)cyclohexyl)-5,6-dihydrobenzo[f]imidazo[1,5-d][1,4]oxazepine-10-carboxamide] | 100 to 1000 |  |
| Cc1c(C(=O)NC2CCC(OCC(F)(F)F)CC2)cc2c(c1C)OCCn1cncc1-2 (centres unmarked) [Compound 189A, 8,9-Dimethyl-N-(4-(2,2,2-trifluoroethoxy)cyclohexyl)-5,6-dihydrobenzo[f]imidazo[1,5-d][1,4]oxazepine-10-carboxamide] | 100 to 1000 |  |

Results, then the molecule that gave them:

| IC50 (human CD38) [nM] | IC50 (mouse CD38) [nM] | Compound |
| --- | --- | --- |
| < 30 | < 1 | C[C@H]1CCCC[C@@H]1NC(=O)c1cc(F)c2c(c1)-c1cncn1CCO2 (relative stereo) [Compound 174A, 8-Fluoro-N-(trans-2-methylcyclohexyl)-5,6-dihydrobenzo[f]imidazo[1,5-d][1,4]oxazepine-10-carboxamide] |
| < 30 | 1 to 10 | C[C@@H]1CCCC[C@@H]1NC(=O)c1cc(F)c2c(c1)-c1cncn1CCO2 (relative stereo) [Compound 175A, 8-Fluoro-N-(cis-2-methylcyclohexyl)-5,6-dihydrobenzo[f]imidazo[1,5-d][1,4]oxazepine-10-carboxamide] |
| < 30 | 1 to 10 | C[C@@H]1CCC[C@@H](C)C1NC(=O)c1cc(F)c2c(c1)-c1cncn1CCO2 (relative stereo) [Compound 177A, N-(trans-2-cis-6-Dimethylcyclohexyl)-8-fluoro-5,6-dihydrobenzo[f]imidazo[1,5-d][1,4]oxazepine-10-carboxamide] |
| < 30 | < 1 | O=C(N[C@@H]1CCCOC1)c1ccc2c(c1)-c1cncn1CCO2 [Compound 1A, (R)—N-(Tetrahydro-2H-pyran-3-yl)-5,6-dihydrobenzo[f]imidazo[1,5-d][1,4]oxazepine-10-carboxamide] |
| < 30 | 1 to 10 | O=C(N[C@@H]1CCS(=O)(=O)C1)c1ccc2c(c1)-c1cncn1CCO2 [Compound 2A, (R)—N-(1,1-Dioxidotetrahydrothiophen-3-yl)-5,6-dihydrobenzo[f]imidazo[1,5-d][1,4]oxazepine-10-carboxamide] |
| < 30 | 1 to 10 | COCCO[C@H]1CC[C@H](NC(=O)c2ccc3c(c2)-c2cncn2CCO3)CC1 [Compound 3A, N-((1r,4r)-4-(2-Methoxyethoxy)cyclohexyl)-5,6-dihydrobenzo[f]imidazo[1,5-d][1,4]oxazepine-10-carboxamide] |
| < 30 | 1 to 10 | CS(=O)(=O)N1CCC(NC(=O)c2ccc3c(c2)-c2cncn2CCO3)CC1 [Compound 4A, N-(1-(Methylsulfonyl)piperidin-4-yl)-5,6-dihydrobenzo[f]imidazo[1,5-d][1,4]oxazepine-10-carboxamide] |
| < 30 | < 1 | O=C(NC1CCC(F)(F)CC1)c1ccc2c(c1)-c1cncn1CCO2 [Compound 5A, N-(4,4-Difluorocyclohexyl)-5,6-dihydrobenzo[f]imidazo[1,5-d][1,4]oxazepine-10-carboxamide] |
| < 30 |  | COc1nc2cc(NC(=O)c3ccc4c(c3)-c3cncn3CCO4)ccc2s1 [Compound 44A, N-(2-Methoxybenzo[d]thiazol-5-yl)-5,6-dihydrobenzo[f]imidazo[1,5-d][1,4]oxazepine-10-carboxamide] |
| < 30 |  | COCCOc1nc2cc(NC(=O)c3ccc4c(c3)-c3cncn3CCO4)ccc2s1 [Compound 45A, N-(2-(2-Methoxyethoxy)benzo[d]thiazol-5-yl)-5,6-dihydrobenzo[f]imidazo[1,5-d][1,4]oxazepine-10-carboxamide] |
| 100 to 1000 |  | COCCO[C@H]1CC[C@H](NC(=O)c2cc3c(c(C)c2C)OCCn2cncc2-3)CC1 [Compound 179A, N-((1r,4r)-4-(2-Methoxyethoxy)cyclohexyl)-8,9-dimethyl-5,6-dihydrobenzo[f]imidazo[1,5-d][1,4]oxazepine-10-carboxamide] |
| 30 to 100 |  | Cc1cc(CC(F)(F)F)ccc1NC(=O)c1cc(Cl)c2c(c1)-c1cncn1CCO2 [Compound 182A, 8-Chloro-N-(2-methyl-4-(2,2,2-trifluoroethyl)phenyl)-5,6-dihydrobenzo[f]imidazo[1,5-d][1,4]oxazepine-10-carboxamide] |
| 30 to 100 |  | COCCO[C@H]1CC[C@H](NC(=O)c2cc3c(c(Cl)c2C)OCCn2cncc2-3)CC1 [Compound 191A, 8-Chloro-N-((1r,4r)-4-(2-methoxyethoxy)cyclohexyl)-9-methyl-5,6-dihydrobenzo[f]imidazo[1,5-d][1,4]oxazepine-10-carboxamide] |
